Tests used:
C6 [1] = assay: Mitochondrial oxidative phosphorylation in glioma cells (ATP/ADP, NADH/NAD+, ATP); type: cell-based, rat
[2] = Weight gain and fat accumulation caused by high-fat diet; type: in vivo, ICR mice; conditions: high-fat diet mice
Description: 40 ICR male mice (17-19 g/per mouse) were divided into 2 groups. […] The animals of the normal group (Naive) were still fed with the basic feed, and the model animals were equally divided into 4 groups and were further fed with the high-fat diet. In addition, according to the amount of water the mice had consumed, a certain dose of the agent was dissolved in drinking water. The animals in the model group (Model) were fed with the purified water, the animals in the fructose-1,6-bisphosphate group were fed with water containing 0.18% of 8-molecule hydrate of sodium fructose-1,6-bisphosphate (equivalent to FBP 300 mg/kg), the animals in the sitagliptin group were fed with water containing 0.012% of sitagliptin phosphate salt (equivalent to STG 20 mg/kg), and the animals in the combination group were fed with water containing FBP 500 mg/kg+STG 20 mg/kg. The treatment lasted continuously for 6 weeks, the body weight, food intake and water intake were measured per week, the body weight and body length (CM) were measured on the last day of the last week, and a Lee's INDEX (Lee's INDEX=body weight (g)^(1/3) * 1000/body length (cm)) was calculated to evaluate the state of animal obesity. Then, the animals were sacrificed by cervical vertebra dislocation and the mice were dissected, the epididymal fat pad was taken and weighed, and a fat coefficient was calculated to further investigate the degree of obesity of the mice.

C6 [3] = assay: Reactive oxygen species and mitochondrial membrane potential; type: cell-based, rat; conditions: C6, 0.8 mM
[4] = healthy volunteers, intravenous infusion 250 mg/kg, cited from earlier work
[5] = test system: mouse liver cancer cells H22; assay: Tumor growth of mouse liver cancer H22 model; type: in vivo, ICR mice; conditions: FBP 500 mg/kg, i.g., 7 days; for Tumor weight: three times per day
Description: The treatment was performed three times per day, in which metformin or sitagliptin was administrated 0.5 h before trisodium fructose-1,6-bisphosphate. This is repeated for 7 days, and situations of the animals during the experiments were observed. The animals were sacrificed 24 hours after the last treatment, the tumor masses were taken out and weighed, and the average tumor weight in each group of animals was used as an efficacy index.

SW620 = assay: cells; conditions: Homo sapiens, SW-620, 72 h
Description: Human intestinal cancer cell strains SW620 and HCT-8, which had been incubated for 24 hours, were respectively incubated in a medium containing 0.8 mM of trisodium fructose-1,6-bisphosphate, a medium containing 0.2 mM of metformin/100 μM of sitagliptin, and a medium containing 0.8 mM of trisodium fructose-1,6-bisphosphate and 0.2 mM of metformin/100 μM of sitagliptin for 72 h. A control group (Con) was not treated with the agent. Cell viability was determined by Sulforhodamine B (SRB) staining analysis method.

glioma cells U87-MG = assay: Lactic acid released by glioma cells (glycolysis); type: cell-based, human
Description: (§3) Human glioma cell strains (U87-MG, KNS-89, SHG-44) were respectively incubated in culture media containing 0.8 mM of trisodium fructose-1,6-bisphosphate salt, and 1.6 mM of trisodium fructose-1,6-bisphosphate salt, and 1.6 mM of 2-deoxyglucose, and the contents of lactic acid as the final glycolytic product released by the cells in the culture media were measured after 12 h, 24 h, 36 h, and 48 h. […] Human glioma cell strain (U87-MG) was incubated in the culture medium containing 0.8 mM of trisodium fructose-1,6-bisphosphate salt for 1 h, 3 h, 6 h, 12 h, 24 h, 36 h, and 48 h, and level changes of key metabolic enzymes in the glycolytic pathway of cells were measured by Western Blot at the respective time points.

[6] = test system: patient-derived glioma cells Tumor 1; assay: Intracellular glycolytic intermediates (LC-MS/MS) and FBP in culture medium; type: cell-based, human; conditions: Tumor 1, 1.6 mM, 36 h
Description: (§1) Rat glioma cell strains (C6), human glioma cell strains (U87-MG, U-251, SHG-44) and patient-derived glioma cells (tumor 1, tumor 3) were incubated in a culture medium containing 1.6 mM of trisodium fructose-1,6-bisphosphate, and after 36 h, levels of glycolytic intermediates including glucose-6-phosphate G6P, fructose-1,6-bisphosphate FBP, glyceraldehyde 3-phosphate (GAP), dihydroxyacetone phosphate (DHAP), and […] 3-phosphoglyceric acid PGA in respective cells were measured by using LC-MS/MS; and additionally, the levels of fructose-1,6-bisphosphate in each glioma cell strain at 12 h and 36 h were measured.

[7] = test system: patient-derived glioma cells Tumor 3; assay: as above; type: cell-based, human; conditions: Tumor 3, 1.6 mM, 36 h
Description: as §1

C6 [8] = assay: Glutathiones and NADPH/NADP+ (LC-MS/MS); type: cell-based, rat; conditions: C6, 1.6 mM, 36 h
Description: (§2) Rat glioma cell strain (C6) and human glioma cell strain (KNS-89, SHG-44) were respectively cultured in a medium containing 1.6 mM of trisodium fructose-1,6-bisphosphate for 36 h, and important antioxidants in cells were measured by liquid-mass spectrometry (LC-MS/MS).

KNS-89 [9] = assay: Mitochondrial oxidative phosphorylation in glioma cells (ATP/ADP, NADH/NAD+, ATP); type: cell-based, human
U87-MG = assay: Western Blot of key glycolytic enzymes; type: cell-based, human; conditions: 0.8 mM, 1 h to 48 h
Description: as §3

U87MG = assay: 13C-glucose tracing: tricarboxylic acid circulation intermediates, derived amino acids, nucleotide synthesis (LC-MS/MS); type: cell-based, human; conditions: 1.6 mM, 36 h
Description: Human glioma cell strain (U87MG) was incubated in a medium containing ^13C-labeled glucose (U-^13C-Glc) and treated with 1.6 mM of trisodium fructose-1,6-bisphosphate for 36 h, and then using liquid-mass spectrometry (LC-MS/MS), intracellular tricarboxylic acid circulation intermediates, tricarboxylic acid circulation intermediates-derived amino acids and nucleotide de novo synthesis pathway intermediates were measured.

SHG-44 [10] = assay: Mitochondrial oxidative phosphorylation in glioma cells (ATP/ADP, NADH/NAD+, ATP); type: cell-based, human
U251 = assay: Reactive oxygen species and mitochondrial membrane potential; type: cell-based, human; conditions: U251, 0.8 mM
SHG-44 [11] = assay: Glutathiones and NADPH/NADP+ (LC-MS/MS); type: cell-based, human; conditions: SHG-44, 1.6 mM, 36 h
Description: as §2

KNS-89 [12] = assay: Glutathiones and NADPH/NADP+ (LC-MS/MS); type: cell-based, human; conditions: KNS-89, 1.6 mM, 36 h
Description: as §2

glioma cells SHG-44 = assay: Lactic acid released by glioma cells (glycolysis); type: cell-based, human
Description: as §3

## O=C(COP(=O)(O)O)[C@@H](O)[C@H](O)[C@H](O)COP(=O)(O)O [FBP, fructose-1,6-bisphosphate]
C6 [1]; C6, 0.8 mM or 1.6 mM, 36 h
  ratio of ATP/ADP (CON = 1.00): 10.89 ± 1.37
  ratio of NADH/NAD+ (CON = 1.00): 7.76 ± 0.59
C6 [1]; C6, 36 h, vs control group
  ATP level: significantly increased
[2]; 6 weeks, model group 3.96±0.83%, normal group 1.58±0.68%
  fat coefficient (epididymal fat pad): 2.81±0.81%
[2]; 6 weeks, model group 353.28±9.64, normal group 337.05±9.96
  Lee's INDEX: 326.14±11.10
[2]; agents in drinking water, FBP 300 mg/kg, STG 20 mg/kg, combination FBP 500 mg/kg+STG 20 mg/kg, model group 47.89±3.34
  body weight after 6 weeks: 45.93 ± 5.1 g
C6 [3]; 12 h
  Relative level of mitochondrial membrane potential (compared with the control group): 0.8 ± 0.14
  Relative level of reactive oxygen species (compared with the control group): 1.26 ± 0.04
C6 [3]; 24 h
  Relative level of mitochondrial membrane potential (compared with the control group): 0.6 ± 0.11
  Relative level of reactive oxygen species (compared with the control group): 1.89 ± 0.03
C6 [3]; 48 h
  Relative level of mitochondrial membrane potential (compared with the control group): 0.1 ± 0.09
C6 [3]; 72 h
  Relative level of mitochondrial membrane potential (compared with the control group): 0.1 ± 0.07
[4]; within 5 minutes
  blood concentration: 770 µg/mL
[4]
  half-life: 10 to 15 min
[5]; H22, metformin experiment, Met 150 mg/kg, Con 1.66 ± 0.29
  Tumor weight: 0.91 ± 0.23 g
[5]; H22, sitagliptin experiment, STG 20 mg/kg, Con 1.48 ± 0.34
  Tumor weight: 0.67 ± 0.28 g
[5]; H22, metformin 150 mg/kg, sitagliptin 20 mg/kg
  inhibition of tumor growth (inhibition ratio): 54.39%
SW620; read-out: cell viability (Con = 100)
  viability at 800 µM: 49.9 ± 3.91%
SW620; read-out: cell viability inhibited
  cytotoxicity at 800 µM: 41%
Glioma cells U87-MG; 0.8 mM, 12 h
  Relative levels of lactic acid (compared with the control group): 0.96 ± 0.13
Glioma cells U87-MG; 0.8 mM, 24 h
  Relative levels of lactic acid (compared with the control group): 0.73 ± 0.05
Glioma cells U87-MG; 0.8 mM, 36 h
  Relative levels of lactic acid (compared with the control group): 0.56 ± 0.18
Glioma cells U87-MG; 1.6 mM, 12 h
  Relative levels of lactic acid (compared with the control group): 1.09 ± 0.11
Glioma cells U87-MG; 1.6 mM, 24 h
  Relative levels of lactic acid (compared with the control group): 0.71 ± 0.05
Glioma cells U87-MG; 1.6 mM, 36 h
  Relative levels of lactic acid (compared with the control group): 0.39 ± 0.03
[6]
  Increase folds of intracellular DHAP (compared with the control group): 4.9 folds
  Increase folds of intracellular F6P (compared with the control group): 2.02 folds
  Increase folds of intracellular FBP (compared with the control group): 8.27 folds
  Increase folds of intracellular GAP (compared with the control group): 7.22 folds
  Increase folds of intracellular PGA (compared with the control group): 1.13 folds
[7]
  Increase folds of intracellular DHAP (compared with the control group): 55.58 folds
  Increase folds of intracellular F6P (compared with the control group): 14.12 folds
  Increase folds of intracellular FBP (compared with the control group): 22.94 folds
  Increase folds of intracellular GAP (compared with the control group): 76.22 folds
  Increase folds of intracellular PGA (compared with the control group): 1.86 folds
C6 [8]
  Relative content of GSH (compared with the control group): 0.69 ± 0.01
  Relative content of GSSG (compared with the control group): 0.06 ± 0.00
  Relative ratio of NADPH to NADP+ (compared with the control group): 0.14 ± 0.01
KNS-89 [9]; KNS-89, 0.8 mM or 1.6 mM, 36 h
  ratio of ATP/ADP (CON = 1.00): 2.91 ± 0.03
  ratio of NADH/NAD+ (CON = 1.00): 9.44 ± 0.75
KNS-89 [9]; KNS-89, 36 h, vs control group
  ATP level: significantly increased
U87-MG
  levels of HK2, PFKFB3, PKM2 and LDH5 (Western Blot): quickly and continuously down-regulated
U87MG
  Relative level of Asp (compared with the control group): 0.16 ± 0.07
  Relative level of Glu (compared with the control group): 0.35 ± 0.04
  Relative level of OAA (compared with the control group): 1.87 ± 0.04
  Relative level of α-KG (compared with the control group): 1.61 ± 0.01
U87MG; CON 12.41 ± 1.19
  Proportion of 13C-labeled purine/pyrimidine ring in A: 7.70 ± 1.50
U87MG; CON 20.58 ± 2.30
  Proportion of 13C-labeled purine/pyrimidine ring in U: 8.33 ± 0.90
U87MG; CON 38.26 ± 1.50
  Proportion of 13C-labeled purine/pyrimidine ring in ATP: 23.77 ± 0.57
U87MG; CON 50.67 ± 0.96
  Proportion of 13C-labeled purine/pyrimidine ring in UTP: 18.19 ± 0.87
U87MG; CON 53.75 ± 1.47
  Proportion of 13C-labeled purine/pyrimidine ring in G: 41.83 ± 4.06
SHG-44 [10]; SHG-44, 0.8 mM or 1.6 mM, 36 h
  ratio of ATP/ADP (CON = 1.00): 3.82 ± 0.68
  ratio of NADH/NAD+ (CON = 1.00): 3.40 ± 0.15
SHG-44 [10]; SHG-44, 36 h, vs control group
  ATP level: significantly increased
U251; 12 h
  Relative level of mitochondrial membrane potential (compared with the control group): 1.08 ± 0.03
  Relative level of reactive oxygen species (compared with the control group): 1.20 ± 0.04
U251; 24 h
  Relative level of mitochondrial membrane potential (compared with the control group): 1.18 ± 0.01
  Relative level of reactive oxygen species (compared with the control group): 1.19 ± 0.03
U251; 48 h
  Relative level of mitochondrial membrane potential (compared with the control group): 0.6 ± 0.06
  Relative level of reactive oxygen species (compared with the control group): 1.42 ± 0.03
U251; 72 h
  Relative level of mitochondrial membrane potential (compared with the control group): 0.4 ± 0.07
  Relative level of reactive oxygen species (compared with the control group): 1.82 ± 0.03
SHG-44 [11]
  Relative content of GSH (compared with the control group): 0.67 ± 0.01
  Relative content of GSSG (compared with the control group): 0.38 ± 0.01
  Relative ratio of NADPH to NADP+ (compared with the control group): 0.39 ± 0.01
KNS-89 [12]
  Relative content of GSH (compared with the control group): 0.01 ± 0.00
  Relative content of GSSG (compared with the control group): 0.33 ± 0.02
  Relative ratio of NADPH to NADP+ (compared with the control group): 0.44 ± 0.04
Glioma cells SHG-44; SHG-44, 0.8 mM, 12 h
  Relative levels of lactic acid (compared with the control group): 1.06 ± 0.05
Glioma cells SHG-44; SHG-44, 0.8 mM, 24 h
  Relative levels of lactic acid (compared with the control group): 0.87 ± 0.01
Glioma cells SHG-44; SHG-44, 0.8 mM, 36 h
  Relative levels of lactic acid (compared with the control group): 0.83 ± 0.05
Glioma cells SHG-44; SHG-44, 1.6 mM, 12 h
  Relative levels of lactic acid (compared with the control group): 0.89 ± 0.09
Glioma cells SHG-44; SHG-44, 1.6 mM, 24 h
  Relative levels of lactic acid (compared with the control group): 0.75 ± 0.07
Glioma cells SHG-44; SHG-44, 1.6 mM, 36 h
  Relative levels of lactic acid (compared with the control group): 0.58 ± 0.06

Reference: patent publication US20200246364A1, “MEDICAL APPLICATION OF COMPOSITION OF FRUCTOSE-1,6-BISPHOSPHATE AND BLOOD CONCENTRATION STABILIZER THEREOF” (ZHEJIANG UNIVERSITY, priority 2017, published 2020)
